Test results reported in US5294611A, “Angiotensin II receptor blocking 2,3,6 substituted quinazolinones” (American Cyanamid Company, priority 1993, dated 1994).
Like-named read-outs stand apart in the source and are kept apart here.

System: Angiotensin II (AII) vasopressor response
Assay: AII Challenge: antagonism of angiotensin II vasopressor response in conscious spontaneously hypertensive rats
Format: in vivo, rat (male okamoto-Aoki SHR)
Conditions: for inhibition in vivo at 3 mg/kg / inhibition in vivo at 5 mg/kg: Rattus norvegicus, read-out: Inhibition; for inhibition in vivo at 3 mg/kg: iv; for inhibition in vivo at 3 mg/kg / inhibition in vivo at 5 mg/kg / Average Change: SHR n=2; for inhibition in vivo at 5 mg/kg: po; for Change: single SHR
Source text: Conscious Male okamoto-Aoki SHR, 16-20 weeks old, weighing approximately 330 g are purchased from Charles River Labs (Wilmington, Mass.). Conscious rats are restrained in a supine position with elastic tape. The area at the base of the tail is locally anesthetized by subcutaneous infiltration with 2% procaine. […] The cannula is secured, heparinized (1,000 I.U./ml), sealed and the wound is closed. The animals are placed in plastic restraining cages in an upright position. The cannula is attached to a Statham P23Db pressure transducer, and pulsatile blood pressure is recorded to 10-15 minutes with a Gould Brush recorder. […] Angiotensin II (human sequence, Sigma Chem. Co., St. Louis, Mo.) of 0.05 and 0.1 ug/kg i.v. is injected into all rats (predosing response). Then a test compound, vehicle or a known angiotensin II antagonist is administered i.v., i.p. or orally to each set of rats. […] The vasopressor response of angiotensin II is measured for the increase in systolic blood pressure in mmHg.

[1] = 3 mg/kg I.V., AII 0.05 mcg/kg IV, 240 min post dose
[2] = 3 mg/kg I.V., AII 0.1 mcg/kg IV, 300 min post dose
[3] = 5 mg/kg P.O., AII 0.1 mcg/kg IV, 300 min post dose

CCCCc1nc2ccc([C@H]3[C@@H]4C(=O)OC[C@@H]4ON3C)cc2c(=O)n1Cc1ccc(-c2ccccc2-c2nnn[nH]2)cc1 (relative stereo) [Example 53]
inhibition in vivo at 3 mg/kg (0.5 h, 3 mg/kg I.V., AII 0.05 mcg/kg IV, 30 min post dose): 74% | inhibition in vivo at 3 mg/kg (0.5 h, 3 mg/kg I.V., AII 0.1 mcg/kg IV, 30 min post dose): 81% | inhibition in vivo at 3 mg/kg (1 h, 3 mg/kg I.V., AII 0.05 mcg/kg IV, 60 min post dose): 99% | inhibition in vivo at 3 mg/kg (1 h, 3 mg/kg I.V., AII 0.1 mcg/kg IV, 60 min post dose): 95% | inhibition in vivo at 3 mg/kg (2 h, 3 mg/kg I.V., AII 0.05 mcg/kg IV, 120 min post dose): 42% | inhibition in vivo at 3 mg/kg (2 h, 3 mg/kg I.V., AII 0.1 mcg/kg IV, 120 min post dose): 64% | inhibition in vivo at 3 mg/kg (3 h, 3 mg/kg I.V., AII 0.05 mcg/kg IV, 180 min post dose): 77% | inhibition in vivo at 3 mg/kg (3 h, 3 mg/kg I.V., AII 0.1 mcg/kg IV, 180 min post dose): 64% | inhibition in vivo at 3 mg/kg (4 h, 3 mg/kg I.V., AII 0.05 mcg/kg IV, 240 min post dose): 36% | inhibition in vivo at 3 mg/kg (4 h, 3 mg/kg I.V., AII 0.1 mcg/kg IV, 240 min post dose): 44% | inhibition in vivo at 3 mg/kg (5 h, 3 mg/kg I.V., AII 0.05 mcg/kg IV, 300 min post dose): 49% | inhibition in vivo at 3 mg/kg (5 h, 3 mg/kg I.V., AII 0.1 mcg/kg IV, 300 min post dose): 39% | inhibition in vivo at 3 mg/kg ([…], 3 mg/kg I.V., AII 0.05 mcg/kg IV, 90 min post dose): 68% | inhibition in vivo at 3 mg/kg ([…], 3 mg/kg I.V., AII 0.1 mcg/kg IV, 90 min post dose): 66% | inhibition in vivo at 5 mg/kg (0.5 h, 5 mg/kg P.O., AII 0.05 mcg/kg IV, 30 min post dose): 75% | inhibition in vivo at 5 mg/kg (0.5 h, 5 mg/kg P.O., AII 0.1 mcg/kg IV, 30 min post dose): 59% | inhibition in vivo at 5 mg/kg (1 h, 5 mg/kg P.O., AII 0.05 mcg/kg IV, 60 min post dose): 81% | inhibition in vivo at 5 mg/kg (1 h, 5 mg/kg P.O., AII 0.1 mcg/kg IV, 60 min post dose): 53% | inhibition in vivo at 5 mg/kg (2 h, 5 mg/kg P.O., AII 0.05 mcg/kg IV, 120 min post dose): 98% | inhibition in vivo at 5 mg/kg (2 h, 5 mg/kg P.O., AII 0.1 mcg/kg IV, 120 min post dose): 74% | inhibition in vivo at 5 mg/kg (3 h, 5 mg/kg P.O., AII 0.05 mcg/kg IV, 180 min post dose): 96% | inhibition in vivo at 5 mg/kg (3 h, 5 mg/kg P.O., AII 0.1 mcg/kg IV, 180 min post dose): 79% | inhibition in vivo at 5 mg/kg (4 h, 5 mg/kg P.O., AII 0.05 mcg/kg IV, 240 min post dose): 69% | inhibition in vivo at 5 mg/kg (4 h, 5 mg/kg P.O., AII 0.1 mcg/kg IV, 240 min post dose): 71% | inhibition in vivo at 5 mg/kg (5 h, 5 mg/kg P.O., AII 0.05 mcg/kg IV, 300 min post dose): 84% | inhibition in vivo at 5 mg/kg (5 h, 5 mg/kg P.O., AII 0.1 mcg/kg IV, 300 min post dose): 53% | inhibition in vivo at 5 mg/kg ([…], 5 mg/kg P.O., AII 0.05 mcg/kg IV, 90 min post dose): 88% | inhibition in vivo at 5 mg/kg ([…], 5 mg/kg P.O., AII 0.1 mcg/kg IV, 90 min post dose): 76% | Average Change (3 mg/kg I.V., AII 0.05 mcg/kg IV, 30 min post dose): 10 mmHg | Average Change (3 mg/kg I.V., AII 0.05 mcg/kg IV, 60 min post dose): 0.5 mmHg | Average Change (3 mg/kg I.V., AII 0.05 mcg/kg IV, 90 min post dose): 12.5 mmHg | Average Change (3 mg/kg I.V., AII 0.05 mcg/kg IV, 120 min post dose): 22.5 mmHg | Average Change (3 mg/kg I.V., AII 0.05 mcg/kg IV, 180 min post dose): 9 mmHg | Average Change [1]: 25 mmHg | Average Change (3 mg/kg I.V., AII 0.1 mcg/kg IV, 30 min post dose): 9.5 mmHg | Average Change (3 mg/kg I.V., AII 0.1 mcg/kg IV, 60 min post dose): 2.5 mmHg | Average Change (3 mg/kg I.V., AII 0.1 mcg/kg IV, 90 min post dose): 16.5 mmHg | Average Change (3 mg/kg I.V., AII 0.1 mcg/kg IV, 120 min post dose): 17.5 mmHg | Average Change (3 mg/kg I.V., AII 0.1 mcg/kg IV, 180 min post dose): 17.5 mmHg | Average Change (3 mg/kg I.V., AII 0.1 mcg/kg IV, 240 min post dose): 27.5 mmHg | Average Change [2]: 30 mmHg | Average Change (5 mg/kg P.O., AII 0.05 mcg/kg IV, 30 min post dose): 10 mmHg | Average Change (5 mg/kg P.O., AII 0.05 mcg/kg IV, 60 min post dose): 7.5 mmHg | Average Change (5 mg/kg P.O., AII 0.05 mcg/kg IV, 90 min post dose): 5 mmHg | Average Change (5 mg/kg P.O., AII 0.05 mcg/kg IV, 120 min post dose): 1 mmHg | Average Change (5 mg/kg P.O., AII 0.05 mcg/kg IV, 180 min post dose): 1.5 mmHg | Average Change (5 mg/kg P.O., AII 0.05 mcg/kg IV, 240 min post dose): 12.5 mmHg | Average Change (5 mg/kg P.O., AII 0.05 mcg/kg IV, 300 min post dose): 6.5 mmHg | Average Change (5 mg/kg P.O., AII 0.1 mcg/kg IV, 30 min post dose): 17.5 mmHg | Average Change (5 mg/kg P.O., AII 0.1 mcg/kg IV, 60 min post dose): 20 mmHg | Average Change (5 mg/kg P.O., AII 0.1 mcg/kg IV, 90 min post dose): 10 mmHg | Average Change (5 mg/kg P.O., AII 0.1 mcg/kg IV, 120 min post dose): 11 mmHg | Average Change (5 mg/kg P.O., AII 0.1 mcg/kg IV, 180 min post dose): 9 mmHg | Average Change (5 mg/kg P.O., AII 0.1 mcg/kg IV, 240 min post dose): 12.5 mmHg | Average Change [3]: 20 mmHg | Change [1]: 25 mmHg | Change (3 mg/kg I.V., AII 0.05 mcg/kg IV, 300 min post dose): 20 mmHg | Change [2]: 30 mmHg | Change [3]: 20 mmHg
